The assay relates to MHC class I molecules of T1 cells (human lymphoma cell line 174×CEM.). The assay can be described thus: Effect on expression of MHC class I from T1 cells (flow cytometry, MFI). Conditions: 3 days culture. The format is cell-based. Here is the method:
Effect on Expression of MHC Class I from T1 Cells (Human Lymphoma Cell Line 174×CEM.)
Using a 96-well flat bottom microplate, T1 cells (5.7×10^3 cells/200 μl/well) were cultured in an RPMI 1640 medium (Iwaki Glass) containing 10% fetal bovine serum (hereinafter abbreviated as FBS; Iruvine Scientific) in an incubator containing 5% carbon dioxide at 37° C. for 3 days, in the presence of a test compound having each concentration obtained by dilution at a common ratio route of 10 from 400 μM. After completion of the culture, the cells were stained with fluoroisothiocyanate-labeled mouse anti-human MHC class I monoclonal antibody (an antibody produced from the cell line W6/32 (ATCC No. CRL 1991)). The mean fluorescence intensity of the stained cells (hereinafter referred to as MFI) was measured using flow cytometry FACScan (BD). The obtained value was defined as an expression level of MHC class I molecules. A test compound concentration necessary for suppressing 20% of the expression level of MHC class I molecules (EC20 value) was calculated using the following formula (1).
[formula] • Eexp: MFI of cultured cells containing test compound after being stained with antibody • Cexp: MFI of cultured cells containing no test compounds after being stained with antibody
(In general: A flow cytometer gives signals particle by particle.)

On to `COC(=O)C1CCCC(NC(=O)Nc2nc3nccc(-c4ccc(OC)cc4)n3n2)C1` (stereo not drawn) [Example 168], for which the “EC20 (concentration necessary for suppressing 20% of the expression level of MHC class I molecules)” value turned out to be 0.67 µM.
On to `COCCCNC(=O)[C@@H](NC(=O)Nc1nc2nccc(-c3ccc(OC)cc3)n2n1)C(C)C` [Example 095], for which the “EC20 (concentration necessary for suppressing 20% of the expression level of MHC class I molecules)” value is 0.63 µM.
In the case of `COCCCNC(=O)Nc1nc2nccc(-c3ccc(OC)cc3)n2n1` [Example 106], the “EC20 (concentration necessary for suppressing 20% of the expression level of MHC class I molecules)” value was found to be 0.51 µM.
Next, `COc1cccc([C@H](C)NC(=O)Nc2nc3nccc(-c4cccc(OCc5ccccn5)c4)n3n2)c1` [Example 201]: 0.16 µM.
For `COc1cccc(-c2ccnc3nc(NC(=O)NC4CCCCC4)nn23)c1` [Example 017] the value was 0.22 µM; for `COc1ccc(-c2ccnc3nc(NC(=O)NCCN4CCOCC4)nn23)cc1` [Example 064], 0.67 µM; for `CCC[C@H](NC(=O)Nc1nc2nccc(-c3ccc(OC)cc3)n2n1)C(=O)Nc1ccccc1` [Example 151], 0.22 µM.
For `COc1cccc([C@H](C)NC(=O)Nc2nc3nccc(-c4cccc(OCCCN5CCOCC5)c4)n3n2)c1` [Example 249] the value was 0.07 µM; for `CCNC(=O)[C@@H](NC(=O)Nc1nc2nccc(-c3ccc(OC)cc3)n2n1)C(C)C` [Example 090], 0.4 µM.
On to `COc1ccc(-c2ccnc3nc(NC(=O)NC(C)CCC(C)C)nn23)cc1` (racemic) [Example 236], for which the “EC20 (concentration necessary for suppressing 20% of the expression level of MHC class I molecules)” value was 0.08 µM.
For `COc1cccc([C@H](C)NC(=O)Nc2nc3nccc(-c4cccc(OCC(=O)N5CCOCC5)c4)n3n2)c1` [Example 253], the “EC20 (concentration necessary for suppressing 20% of the expression level of MHC class I molecules)” value is 0.27 µM.
Next, `COc1cccc(C(C)NC(=O)Nc2nc3nccc(-c4cccc(OCC5CCCO5)c4)n3n2)c1` (mixture of isomers) [Example 206]: 0.22 µM; `COc1ccc(-c2ccnc3nc(NC(=O)NC(C)Cc4ccc(Cl)cc4)nn23)cc1` (racemic) [Example 142]: 0.06 µM; `COc1ccc(-c2ccnc3nc(NC(=O)N[C@H](C(=O)NC4CCCCC4)C(C)C)nn23)cc1` [Example 094]: 0.2 µM.
Next, `CC[C@H](NC(=O)Nc1nc2nccc(-c3ccc(OC)cc3)n2n1)C(=O)NC(C)C(=O)OC` (stereo partly drawn) [Example 150]: 0.71 µM; `CC(C)NC(=O)Nc1nc2nccc(-c3cccc(OCCCc4ccccc4)c3)n2n1` [Example 194]: 0.42 µM; `CC(C)COc1cccc(-c2ccnc3nc(NC(=O)NC(C)C)nn23)c1` [Example 172]: 0.24 µM.
As to `CC(C)CCC[C@H](C)NC(=O)Nc1nc2nccc(-c3ccc(O)cc3)n2n1` [Example 255, (S)-1-(1,5-dimethylhexyl)-3-[7-(4-hydroxyphenyl)-[1,2,4]triazolo[1,5-a]pyrimidin-2-yl]urea], the “EC20 (concentration necessary for suppressing 20% of the expression level of MHC class I molecules)” value came out at 0.0056 µM.
For `COCCOCCOCCOc1cccc(-c2ccnc3nc(NC(=O)N[C@@H](C)c4cccc(OC)c4)nn23)c1` [Example 239], the “EC20 (concentration necessary for suppressing 20% of the expression level of MHC class I molecules)” value is 0.11 µM.
Consider `COc1ccc(-c2ccnc3nc(NC(=O)NC(C)CCC(C)=O)nn23)cc1` (stereo not drawn) [Example 326], for which the “EC20 (concentration necessary for suppressing 20% of the expression level of MHC class I molecules)” value was 0.21 µM.
In the case of `COc1ccc(-c2ccnc3nc(NC(=O)N[C@H](C(=O)NCCc4ccncc4)C(C)C)nn23)cc1` [Example 116], the “EC20 (concentration necessary for suppressing 20% of the expression level of MHC class I molecules)” value was determined as 0.57 µM.
As to `COc1cccc([C@H](C)NC(=O)Nc2nc3nccc(-c4cccc(OCCCc5cccnc5)c4)n3n2)c1` [Example 210], the “EC20 (concentration necessary for suppressing 20% of the expression level of MHC class I molecules)” value was 0.13 µM.
Next, `COc1ccc(-c2ccnc3nc(NC(=O)N[C@@H](C)c4ccc(OC)cc4)nn23)cc1` [Example 133]: 0.19 µM; `COc1cccc([C@H](C)NC(=O)Nc2nc3nccc(-c4ccc(OCCN5CCOCC5)cc4)n3n2)c1` [Example 269]: 0.015 µM.
Regarding `COCOc1ccc(-c2ccnc3nc(NC(=O)N[C@@H](C)c4cccc(OC)c4)nn23)cc1` [Example 226], the “EC20 (concentration necessary for suppressing 20% of the expression level of MHC class I molecules)” value was 0.05 µM.
For the compound `CC(C)NC(=O)Nc1nc2nccc(-c3cccc(OCc4ccccn4)c3)n2n1` [Example 185], the “EC20 (concentration necessary for suppressing 20% of the expression level of MHC class I molecules)” value worked out at 0.35 µM.
Turning to `CCC[C@H](NC(=O)Nc1nc2nccc(-c3ccc(OC)cc3)n2n1)C(=O)N1CCOCC1` [Example 152], the “EC20 (concentration necessary for suppressing 20% of the expression level of MHC class I molecules)” value came to 0.78 µM.
Take `COc1cccc([C@H](C)NC(=O)Nc2nc3nccc(-c4cccc(OCCc5ccncc5)c4)n3n2)c1` [Example 209]: the “EC20 (concentration necessary for suppressing 20% of the expression level of MHC class I molecules)” value amounted to 0.04 µM.
Consider `CC(NC(=O)Nc1nc2nccc(-c3ccc4c(c3)OCO4)n2n1)c1ccc2c(c1)OCO2` (stereo not drawn) [Example 301], for which the “EC20 (concentration necessary for suppressing 20% of the expression level of MHC class I molecules)” value worked out at 0.64 µM.
As to `COc1ccc(-c2ccnc3nc(NC(=O)N[C@@H](C)C(=O)NCc4ccccn4)nn23)cc1` [Example 124], the “EC20 (concentration necessary for suppressing 20% of the expression level of MHC class I molecules)” value is 0.21 µM.
Take `COc1ccc(-c2ccnc3nc(NC(=O)N[C@@H](C)c4ccc(Br)cc4)nn23)cc1` [Example 129]: the “EC20 (concentration necessary for suppressing 20% of the expression level of MHC class I molecules)” value is 0.18 µM.
As to `CNC(=O)[C@@H](NC(=O)Nc1nc2nccc(-c3ccc(OC)cc3)n2n1)C(C)C` [Example 055], the “EC20 (concentration necessary for suppressing 20% of the expression level of MHC class I molecules)” value turned out to be 0.69 µM.
`O=C(Nc1nc2nccc(-c3cccc(O)c3)n2n1)NC1CCCCC1` [Example 085]: the “EC20 (concentration necessary for suppressing 20% of the expression level of MHC class I molecules)” value was found to be 0.4 µM.
Consider `COc1ccc(-c2ccnc3nc(NC(=O)N[C@H](C(=O)N(C)Cc4ccccc4)C(C)C)nn23)cc1` [Example 093], for which the “EC20 (concentration necessary for suppressing 20% of the expression level of MHC class I molecules)” value came out at 0.7 µM.
For `CC(C)COc1cccc(-c2ccnc3nc(NC(=O)NC4CCCCC4)nn23)c1` [Example 108] the value was 0.13 µM.
In the case of `COc1ccc(-c2ccnc3nc(NC(=O)NCc4ccccc4OC)nn23)cc1` [Example 214], the “EC20 (concentration necessary for suppressing 20% of the expression level of MHC class I molecules)” value was 0.42 µM.
Regarding `COc1cccc([C@H](C)NC(=O)Nc2nc3nccc(-c4cccc(OCCCc5ccncc5)c4)n3n2)c1` [Example 211], the “EC20 (concentration necessary for suppressing 20% of the expression level of MHC class I molecules)” value worked out at 0.06 µM.
For the compound `CC(CCCC(C)(C)O)NC(=O)Nc1nc2nccc(-c3cccc(OCc4cccnc4)c3)n2n1` (stereo not drawn) [Example 313, 1-(5-hydroxy-1,5-dimethylhexyl)-3-{7-[3-(pyridin-3-ylmethoxy)phenyl]-[1,2,4]triazolo[1,5-a]pyrimidin-2-yl}urea], the “EC20 (concentration necessary for suppressing 20% of the expression level of MHC class I molecules)” value worked out at 0.29 µM.
Regarding `CCOCC[C@H](C)NC(=O)Nc1nc2nccc(-c3ccc(O)cc3)n2n1` [Example 329], the “EC20 (concentration necessary for suppressing 20% of the expression level of MHC class I molecules)” value worked out at 0.06 µM.
As for `CCOCCC(C)NC(=O)Nc1nc2nccc(-c3ccc4c(c3)OCO4)n2n1` (stereo not drawn) [Example 327, 1-[7-(3,4-methylenedioxyphenyl)-[1,2,4]triazolo[1,5-a]pyrimidin-2-yl]-3-(3-ethoxy-1-methylpropyl)urea], the “EC20 (concentration necessary for suppressing 20% of the expression level of MHC class I molecules)” value came out at 0.15 µM.
Next, `COCC[C@H](C)NC(=O)Nc1nc2nccc(-c3cccs3)n2n1` [Example 332]: 0.76 µM; `COc1ccc(-c2ccnc3nc(NC(=O)NCCc4ccccn4)nn23)cc1` [Example 065]: 0.35 µM; `COc1ccc(-c2ccnc3nc(NC(=O)N[C@@H](C)C(=O)N4CCOCC4)nn23)cc1` [Example 118]: 0.61 µM.
Next, `COc1ccc(-c2ccnc3nc(NC(=O)NCc4ccncc4)nn23)cc1` [Example 103]: 0.62 µM.
For `COCOc1cccc(-c2ccnc3nc(NC(=O)N[C@@H](C)c4cccc(OC)c4)nn23)c1` [Example 212] the value was 0.18 µM; for `O=C(Nc1nc2nccc(-c3cccc(Cl)c3)n2n1)NC1CCCCC1` [Example 016], 0.73 µM; for `CNC(=O)C1CCCC(NC(=O)Nc2nc3nccc(-c4ccc(OC)cc4)n3n2)C1` (stereo not drawn) [Example 174], 0.33 µM.
As to `COc1cc(C(C)NC(=O)Nc2nc3nccc(-c4cccc(OCc5cccnc5)c4)n3n2)cc(OC)c1OC` (stereo not drawn) [Example 307], the “EC20 (concentration necessary for suppressing 20% of the expression level of MHC class I molecules)” value turned out to be 0.14 µM.
